Our source for the IC50 values is patent US12012390B2, “Flavone compounds for the treatment and prophylaxis of hepatitis B virus disease” (priority 2018, dated 2024).

pIC50: −log10 of the molar value.

For orientation: pIC50 means the negative decadic logarithm of the IC50, by convention in mol/L.

The test system of test [1] is HBeAg level (surrogate marker for cccDNA) in HepDES19 cells. Description: Engineered HepDES19 primary screen assay (HBeAg as surrogate marker for cccDNA). It is filed as cell-based, HBV. The note with it: Hepatitis B virus, HepDES19, 120 h, read-out: IC50 (HBeAg) in HepDES19 primary screen assay, HepDES19 cells, 5 days incubation with compound, HBeAg by ELISA. The procedure, abridged: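 HepDES19 cells were induced by Tet withdrawal for 8 days, then exposed to half-log compound dilutions (1% DMSO) for 5 days at 37° C. HBeAg, a cccDNA surrogate, was measured by ELISA; viability by CCK-8. IC50 from 4-parameter logistic fit.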
In general terms: An ELISA detects its analyte on a solid surface through an enzyme-linked reagent.

Test [2] relates to HBV in primary human hepatocytes (PHH). Description: Cryopreserved primary human hepatocytes (PHH) HBV infection assay. The class given is cell-based. Particulars: Hepatitis B virus, Hepatocyte, 216 h, HBV-infected cryopreserved PHH, 9 days post-compound treatment, extracellular HBsAg by CLIA; read-out: HBsAg IC50. The procedure, abridged: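 Cryopreserved PHH (5.8×10^4 cells/well) were infected with 5.8×10^6 HBV genome equivalents in 4% PEG8000/1% DMSO medium. Extracellular HBsAg was measured by CLIA and HBV DNA by qPCR, with IC50 from 4-parameter logistic fits.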

`O=C(O)C1CC(OCCOc2ccc(-c3cc(=O)c4cccc(Cl)c4o3)cc2)C1` (centres unmarked) [Example 1, 3-[2-[4-(8-chloro-4-oxo-chromen-2-yl)phenoxy]ethoxy]cyclobutanecarboxylic acid]: the pIC50 in test [1] is 6.85; in test [2], 6.89.
